Values after ≈ are worked out from the molar mass of the structure shown.
Assays:
[1] = Fraction unbound in human plasma at 5 uM after 4 hrs by LC-MS/MS based equilibrium dialysis method; type: ADME, cell-free
[2] = molecular target: T1, Disintegrin and metalloproteinase domain-containing protein 17 (Homo sapiens, UniProt P78536); assay: Inhibition of TACE in NHEK assessed as reduction in LPS/TPA-stimulated TNFalpha production preincubated for 1 hr followed by LPS/TPA stimulation for 24 hrs by HTRF assay
T1 sequence (P78536 whole entry, the tested form may be a part): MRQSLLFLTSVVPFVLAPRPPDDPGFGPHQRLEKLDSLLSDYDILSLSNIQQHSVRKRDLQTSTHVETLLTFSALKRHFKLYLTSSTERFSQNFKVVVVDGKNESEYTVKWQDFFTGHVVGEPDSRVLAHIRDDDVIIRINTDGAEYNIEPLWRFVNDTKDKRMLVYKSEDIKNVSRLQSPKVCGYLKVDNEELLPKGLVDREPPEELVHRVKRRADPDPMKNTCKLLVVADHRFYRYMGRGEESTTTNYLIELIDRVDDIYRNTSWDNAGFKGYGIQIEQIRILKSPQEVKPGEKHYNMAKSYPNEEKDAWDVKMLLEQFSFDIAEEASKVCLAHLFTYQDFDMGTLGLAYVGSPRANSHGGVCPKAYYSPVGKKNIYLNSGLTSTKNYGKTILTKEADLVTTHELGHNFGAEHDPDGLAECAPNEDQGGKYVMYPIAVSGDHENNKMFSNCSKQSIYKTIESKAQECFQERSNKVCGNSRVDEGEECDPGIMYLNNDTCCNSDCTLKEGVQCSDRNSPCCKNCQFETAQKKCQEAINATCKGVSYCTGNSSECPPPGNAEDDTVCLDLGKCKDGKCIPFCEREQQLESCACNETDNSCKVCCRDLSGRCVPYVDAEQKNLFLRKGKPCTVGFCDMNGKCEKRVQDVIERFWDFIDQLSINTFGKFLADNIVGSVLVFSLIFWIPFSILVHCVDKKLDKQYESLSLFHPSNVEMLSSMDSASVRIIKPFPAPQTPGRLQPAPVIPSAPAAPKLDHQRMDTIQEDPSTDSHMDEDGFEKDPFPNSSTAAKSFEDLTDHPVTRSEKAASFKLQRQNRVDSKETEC

[3] = Solubility of the compound in PG/EtOH96; type: physicochemical
[4] = Aqueous solubility of the compound; type: physicochemical
[5] = molecular target: T1, Disintegrin and metalloproteinase domain-containing protein 17; assay: Inhibition of recombinant human TACE catalytic domain using Mca-Pro-Leu-Ala-Gln-Ala-Val-Dpa-Arg-Ser-Ser-Ser-Arg-NH2 as substrate after 2 hrs by fluorescence assay
[6] = molecular target: Macrophage metalloelastase (Homo sapiens, UniProt P39900); assay: Inhibition of MMP12 (unknown origin)
Macrophage metalloelastase, sequence (P39900 whole entry): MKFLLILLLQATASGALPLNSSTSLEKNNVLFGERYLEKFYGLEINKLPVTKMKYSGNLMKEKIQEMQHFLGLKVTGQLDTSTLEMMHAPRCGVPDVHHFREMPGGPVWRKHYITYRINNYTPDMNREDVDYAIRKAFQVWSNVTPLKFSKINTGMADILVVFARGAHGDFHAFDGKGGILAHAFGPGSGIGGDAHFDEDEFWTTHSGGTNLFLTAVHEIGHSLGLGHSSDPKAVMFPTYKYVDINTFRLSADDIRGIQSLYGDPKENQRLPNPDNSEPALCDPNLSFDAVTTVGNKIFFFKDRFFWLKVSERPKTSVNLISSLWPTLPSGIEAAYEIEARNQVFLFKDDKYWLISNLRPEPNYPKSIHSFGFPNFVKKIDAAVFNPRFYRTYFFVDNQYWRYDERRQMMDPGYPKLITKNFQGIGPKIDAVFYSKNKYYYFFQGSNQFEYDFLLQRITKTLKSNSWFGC

Stromelysin-1 = Stromelysin-1 (Homo sapiens, UniProt P08254); assay: Inhibition of MMP3 (unknown origin)
Stromelysin-1, sequence (P08254 whole entry, the tested form may be a part): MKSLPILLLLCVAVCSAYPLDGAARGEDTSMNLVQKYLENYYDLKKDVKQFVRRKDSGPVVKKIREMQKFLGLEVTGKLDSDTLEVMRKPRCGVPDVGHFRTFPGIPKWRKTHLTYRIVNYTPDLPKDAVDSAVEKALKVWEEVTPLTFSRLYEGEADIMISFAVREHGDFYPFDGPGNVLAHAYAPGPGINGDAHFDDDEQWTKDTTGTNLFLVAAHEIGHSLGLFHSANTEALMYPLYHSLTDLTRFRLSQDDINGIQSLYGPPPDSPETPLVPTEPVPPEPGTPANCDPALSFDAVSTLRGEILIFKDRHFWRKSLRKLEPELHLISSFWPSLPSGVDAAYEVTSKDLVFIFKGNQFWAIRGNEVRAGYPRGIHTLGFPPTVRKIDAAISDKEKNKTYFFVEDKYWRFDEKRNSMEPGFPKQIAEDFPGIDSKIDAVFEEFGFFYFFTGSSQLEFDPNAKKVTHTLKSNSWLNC

Interstitial collagenase = molecular target: T2, Interstitial collagenase (Homo sapiens, UniProt P03956); assay: Inhibition of recombinant human MMP1 catalytic domain using Mca-Pro-Leu-Gly-Leu-Dpa-Ala-Arg-NH2 as substrate after 10 mins by fluorescence assay
T2 sequence (P03956 whole entry): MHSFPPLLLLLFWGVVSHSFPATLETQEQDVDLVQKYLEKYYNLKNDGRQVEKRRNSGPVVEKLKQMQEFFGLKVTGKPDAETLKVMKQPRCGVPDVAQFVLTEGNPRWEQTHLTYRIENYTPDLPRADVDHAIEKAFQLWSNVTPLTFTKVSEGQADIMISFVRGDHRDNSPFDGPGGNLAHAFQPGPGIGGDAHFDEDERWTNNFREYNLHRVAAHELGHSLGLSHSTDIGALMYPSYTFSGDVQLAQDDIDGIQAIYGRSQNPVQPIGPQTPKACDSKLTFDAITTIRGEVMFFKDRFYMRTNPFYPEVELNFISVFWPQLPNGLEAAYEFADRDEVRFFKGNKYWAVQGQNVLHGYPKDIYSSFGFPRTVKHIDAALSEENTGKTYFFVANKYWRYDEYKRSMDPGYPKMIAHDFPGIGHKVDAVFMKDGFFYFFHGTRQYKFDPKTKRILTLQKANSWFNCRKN

[7] = Intrinsic clearance in human hepatocytes assessed per million cells at 1 uM up to 90 mins by LC-MS/MS analysis; type: ADME, cell-based, Hepatocyte; conditions: read-out: CLH
[8] = Half life in human keratinocytes at 1 uM by LC-MS/MS analysis; type: ADME, cell-based, Keratinocyte
[9] = molecular target: T3, Disintegrin and metalloproteinase domain-containing protein 9 (Homo sapiens, UniProt Q13443); assay: Inhibition of ADAM9 (unknown origin)
T3 sequence (Q13443 whole entry): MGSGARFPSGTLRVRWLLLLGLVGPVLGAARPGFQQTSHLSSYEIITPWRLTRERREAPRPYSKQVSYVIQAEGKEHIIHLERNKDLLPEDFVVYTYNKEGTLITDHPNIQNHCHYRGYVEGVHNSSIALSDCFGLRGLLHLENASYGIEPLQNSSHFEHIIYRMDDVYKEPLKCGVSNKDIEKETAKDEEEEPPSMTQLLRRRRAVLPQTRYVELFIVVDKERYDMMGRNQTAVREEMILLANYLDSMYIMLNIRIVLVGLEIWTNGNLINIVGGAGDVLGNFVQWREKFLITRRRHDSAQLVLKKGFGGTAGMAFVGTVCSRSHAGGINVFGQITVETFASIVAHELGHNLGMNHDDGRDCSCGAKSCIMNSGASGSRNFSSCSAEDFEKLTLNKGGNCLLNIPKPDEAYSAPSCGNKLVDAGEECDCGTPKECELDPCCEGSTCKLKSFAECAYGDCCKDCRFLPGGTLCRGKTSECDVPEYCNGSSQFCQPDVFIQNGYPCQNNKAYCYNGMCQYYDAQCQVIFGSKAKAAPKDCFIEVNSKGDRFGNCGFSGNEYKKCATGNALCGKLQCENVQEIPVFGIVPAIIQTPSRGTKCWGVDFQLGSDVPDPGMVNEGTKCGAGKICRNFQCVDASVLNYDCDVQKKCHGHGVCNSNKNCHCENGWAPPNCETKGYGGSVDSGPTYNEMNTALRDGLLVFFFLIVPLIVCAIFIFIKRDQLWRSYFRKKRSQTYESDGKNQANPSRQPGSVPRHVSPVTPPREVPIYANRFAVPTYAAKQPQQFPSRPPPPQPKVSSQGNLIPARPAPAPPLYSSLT

[10] = molecular target: Matrix metalloproteinase-9 (Homo sapiens, UniProt P14780); assay: Inhibition of MMP9 (unknown origin)
Matrix metalloproteinase-9, sequence (P14780 whole entry): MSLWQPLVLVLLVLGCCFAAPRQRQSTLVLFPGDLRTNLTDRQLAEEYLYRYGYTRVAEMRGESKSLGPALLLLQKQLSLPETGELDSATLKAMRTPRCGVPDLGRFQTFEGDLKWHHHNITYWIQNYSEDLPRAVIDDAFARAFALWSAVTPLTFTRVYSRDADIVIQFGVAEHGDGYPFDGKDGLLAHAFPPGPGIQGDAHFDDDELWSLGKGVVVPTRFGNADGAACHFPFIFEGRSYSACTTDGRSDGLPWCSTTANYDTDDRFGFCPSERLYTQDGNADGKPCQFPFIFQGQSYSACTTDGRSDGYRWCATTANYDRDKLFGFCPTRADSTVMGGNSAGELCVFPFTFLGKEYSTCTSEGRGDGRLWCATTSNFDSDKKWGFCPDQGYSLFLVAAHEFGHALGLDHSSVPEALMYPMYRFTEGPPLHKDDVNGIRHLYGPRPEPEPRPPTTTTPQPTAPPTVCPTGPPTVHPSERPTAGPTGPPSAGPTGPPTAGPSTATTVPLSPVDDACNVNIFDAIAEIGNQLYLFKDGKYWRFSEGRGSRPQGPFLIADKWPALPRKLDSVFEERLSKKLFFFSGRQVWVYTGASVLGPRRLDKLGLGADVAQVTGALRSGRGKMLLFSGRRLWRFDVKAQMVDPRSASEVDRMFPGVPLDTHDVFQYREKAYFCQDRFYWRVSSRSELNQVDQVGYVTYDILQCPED

[11] = Photoirritancy factor, ratio of EC50 for human neonatal keratinocytes under dark condition to EC50 for human neonatal keratinocytes under 5 J/cm2 UV light exposure; parameters: species or system Neonatal keratinocyte
[12] = molecular target: T4, Disintegrin and metalloproteinase domain-containing protein 10 (Homo sapiens, UniProt O14672); assay: Inhibition of ADAM10 (unknown origin)
T4 sequence (O14672 whole entry): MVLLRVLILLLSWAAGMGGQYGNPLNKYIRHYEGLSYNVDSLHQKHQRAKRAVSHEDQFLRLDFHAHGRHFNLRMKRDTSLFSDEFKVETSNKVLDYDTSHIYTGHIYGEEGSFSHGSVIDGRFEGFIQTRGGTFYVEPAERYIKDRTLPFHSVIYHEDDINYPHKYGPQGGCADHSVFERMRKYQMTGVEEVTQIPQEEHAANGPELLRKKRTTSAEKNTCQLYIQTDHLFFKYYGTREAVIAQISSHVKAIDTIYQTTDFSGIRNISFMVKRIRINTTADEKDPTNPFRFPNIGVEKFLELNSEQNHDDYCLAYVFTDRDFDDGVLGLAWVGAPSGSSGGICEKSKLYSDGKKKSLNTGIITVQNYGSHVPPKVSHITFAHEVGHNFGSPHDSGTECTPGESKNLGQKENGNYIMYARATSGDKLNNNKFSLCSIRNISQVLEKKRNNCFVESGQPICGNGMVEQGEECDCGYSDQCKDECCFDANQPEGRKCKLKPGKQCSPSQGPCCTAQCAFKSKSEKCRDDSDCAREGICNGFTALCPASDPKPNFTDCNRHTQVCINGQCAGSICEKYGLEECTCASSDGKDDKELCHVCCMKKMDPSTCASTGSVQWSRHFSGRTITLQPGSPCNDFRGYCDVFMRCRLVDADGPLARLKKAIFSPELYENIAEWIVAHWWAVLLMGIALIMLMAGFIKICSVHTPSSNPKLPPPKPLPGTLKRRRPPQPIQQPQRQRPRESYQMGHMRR

[13] = Stability in human liver microsomes assessed as parent compound remaining at 1 uM after 15 mins by LC-MS/MS analysis; type: ADME, microsome; conditions: read-out: Stability
[14] = molecular target: T1, Disintegrin and metalloproteinase domain-containing protein 17; assay: Inhibition of TACE in human PBMC assessed as inhibition of TNFalpha production

fraction unbound at 4 h, 5 µM [1]	IC50 [2] [nM]	solubility [3] [µM]	solubility [4] [µM]	IC50 [5] [nM]	IC50 [6] [nM]	IC50 (Stromelysin-1) [nM]	IC50 (Interstitial collagenase) [nM]	hepatocyte CLint at […], 1 µM [7] [µL/min/1e6 cells]	half-life at 1 µM [8] [h]	IC50 [9] [nM]	IC50 [10] [nM]	IC50 [12] [nM]	remaining at […], 1 µM [13] [%]	IC50 [14] [nM]	Structure (SMILES)	Ratio EC50 [11]
0.03	1300	> 55	20 (≈ 10.9 µg/mL)	12	930	> 10000	> 10000	14	> 24	> 10000	> 10000	> 10000	47	–	Cc1cc(COc2ccc(S(=O)(=O)N3CCN(C(=O)C(C)(C)C)C(C(=O)NO)C3)cc2)c2c(n1)CCCC2 (centres undefined)	1
–	120	–	90 (≈ 37.3 µg/mL)	4	–	–	–	–	–	–	–	–	–	158	CC1(C)SCCN(S(=O)(=O)c2ccc(OCC#CCO)cc2)[C@H]1C(=O)NO	–
